Measurements as given in PMC9953043, “Licochalcone E, a β-Amyloid Aggregation Inhibitor, Regulates Microglial M1/M2 Polarization via Inhibition of CTL1-Mediated Choline Uptake” (Biomolecules, 2023).
pIC50: −log10 of the molar value.

Molecular target: T1, amyloid-β 1-42 (Aβ1-42) (Homo sapiens, UniProt P05067)
T1 construct: gene APP; Aβ1-42 peptide
Experiment: Thioflavin T aggregation assay with purified Aβ[…]-42 peptide
Type: biochemical

T1 sequence (P05067 672-713): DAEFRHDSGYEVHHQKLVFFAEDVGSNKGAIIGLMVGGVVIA

pIC50 | SMILES
4.52 | COc1c(/C=C/C(=O)c2ccc(O)c(CC=C(C)C)c2)ccc(O)c1O [Lico D, Licochalcone D]
3.98 | C=C(C)[C@H](C)c1cc(/C=C/C(=O)c2ccc(O)cc2)c(OC)cc1O [Lico E, Licochalcone E]
